Key:
Format in all cases: in vivo
[1] = system: Abutilon theophrasti; experiment: Pre-emergence herbicidal action, ABUTH; parameters: key to Herbicidal action against ABUTH: % activity: 100 = plants have died, 0 = like control plants; conditions: for herbicidal activity ABUTH / herbicidal action ABUTH: dosage 320 g/ha; for herbicidal activity ABUTH: scored visually after 3 weeks vs untreated controls (100% = plants have died); for Herbicidal action against ABUTH: comparative experiment, 80 g of a.i./ha
Procedure, shortened: (§1)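 Seeds sown in sandy loam in pots and covered with soil; compounds formulated as WP or EC were sprayed onto the soil surface as aqueous suspension/emulsion at 600 to 800 l/ha water with 0.2% wetting agent. Greenhouse growth; visual damage scored after 3 weeks versus untreated controls (100% = plants died, 0% = like control).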

[2] = system: Stellaria media; experiment: Pre-emergence herbicidal action, STEME; parameters: key to Herbicidal action against STEME: % activity: 100 = plants have died, 0 = like control plants; conditions: for herbicidal activity STEME / herbicidal action STEME: dosage 320 g/ha; for herbicidal activity STEME: scored visually after 3 weeks vs untreated controls (100% = plants have died); for Herbicidal action against STEME: comparative experiment, 20 g of a.i./ha
Procedure, shortened: as §1

[3] = system: Veronica persica; experiment: Pre-emergence herbicidal action, VERPE; parameters: key to Herbicidal action against VERPE: % activity: 100 = plants have died, 0 = like control plants; conditions: for herbicidal activity VERPE / herbicidal action VERPE: dosage 320 g/ha; for herbicidal activity VERPE: scored visually after 3 weeks vs untreated controls (100% = plants have died); for Herbicidal action against VERPE: comparative experiment
Procedure, shortened: as §1

[4] = system: Stellaria media; experiment: Post-emergence herbicidal action, STEME; parameters: key: % herbicidal action vs untreated; 100 = plants died, 0 = like control
Procedure, shortened: (§2)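 Values are visual estimates of herbicidal action, from 0% (as untreated) to 100% (dead), made about 3 weeks after plants at one-leaf stage in sandy loam were sprayed with the formulated compound.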

[5] = system: Viola tricolor; experiment: Post-emergence herbicidal action, VIOTR; parameters: key: % herbicidal action vs untreated; 100 = plants died, 0 = like control
Procedure, shortened: as §2

[6] = comparative experiment, post-emergence, 5 g of a.i./ha
[7] = comparative experiment, post-emergence, 20 g of a.i./ha

Row | SMILES | herbicidal activity ABUTH [1] [%] | herbicidal activity STEME [2] [%] | herbicidal activity VERPE [3] [%] | herbicidal action STEME ([4]; post-emergence, dosage 80 g/ha) [%] | herbicidal action VIOTR ([5]; post-emergence, dosage 80 g/ha) [%] | herbicidal action STEME ([4]; Dosage 80 g/ha) | herbicidal action VIOTR ([5]; Dosage 80 g/ha) | also measured
1 | Cn1nnnc1NC(=O)c1ccc(C(F)F)c(CS(C)(=O)=O)c1Cl [Example 1-322] | 100 | 100 | 100 | 100 | 100 | – | – | –
2 | CCSCc1c(C(F)F)ccc(C(=O)Nc2nnnn2C)c1Cl [Example 1-323] | 100 | 100 | 100 | 100 | 100 | – | – | –
3 | CCS(=O)(=O)Cc1c(C(F)F)ccc(C(=O)Nc2nnnn2C)c1Cl [Example 1-325] | 100 | 100 | 100 | – | – | 100 | 100 | –
4 | CSCc1c(I)ccc(C(=O)Nc2nnnn2C)c1Cl [Example 1-362] | 100 | 100 | 100 | 100 | 100 | – | – | Herbicidal action against STEME [2]: 90; Herbicidal action against VERPE ([3]; 20 g of a.i./ha): 60; Herbicidal action against STEME [4, 6]: 90
5 | Cn1nnnc1NC(=O)c1ccc(I)c(CS(C)(=O)=O)c1Cl [Example 1-364] | 100 | 100 | 100 | – | – | 100 | 100 | Herbicidal action against STEME [2]: 90; Herbicidal action against VERPE ([3]; 20 g of a.i./ha): 100
6 | CCSCc1c(C(F)(F)F)ccc(C(=O)Nc2nnnn2C)c1Br [Example 1-383] | 100 | 100 | 100 | 100 | 100 | – | – | Herbicidal action against ABUTH [1]: 100; Herbicidal action against VERPE ([3]; 80 g of a.i./ha): 100; Herbicidal action against STEME [4, 7]: 100; Herbicidal action against VIOTR [5, 7]: 100
7 | CCS(=O)(=O)Cc1c(C(F)(F)F)ccc(C(=O)Nc2nnnn2C)c1Br [Example 1-385] | 100 | 90 | 100 | 100 | 100 | – | – | Herbicidal action against ABUTH [1]: 100; Herbicidal action against VERPE ([3]; 80 g of a.i./ha): 100; Herbicidal action against STEME [4, 7]: 100; Herbicidal action against VIOTR [5, 7]: 100
8 | Cn1nnnc1NC(=O)c1ccc(C(F)(F)F)c(CS(C)(=O)=O)c1C(F)(F)C(F)(F)F [Example 1-552] | 100 | 100 | 100 | – | – | 90 | 90 | –
9 | CSCc1c(Cl)ccc(C(=O)Nc2nnnn2C)c1Cl [Example 1-559] | – | – | – | 100 | 100 | – | – | herbicidal action ABUTH [1]: 100%; herbicidal action STEME [2]: 90%; herbicidal action VERPE [3]: 90%
10 | COc1c(C(=O)Nc2nnnn2C)ccc(Cl)c1CSC [Example 1-570] | – | – | – | – | – | – | – | herbicidal action ABUTH [1]: 90%; herbicidal action STEME [2]: 80%; herbicidal action VERPE [3]: 80%; Herbicidal action against STEME ([4]; post-emergence, dosage 80 g/ha): 80; Herbicidal action against VIOTR [5, 6]: 60
11 | CCn1nnnc1NC(=O)c1ccc(C(F)(F)F)c(C[S+](C)[O-])c1SC (centres unmarked) [Example 2-162] | 100 | 100 | 90 | – | – | 100 | 100 | –
12 | CCn1nnnc1NC(=O)c1ccc(C(F)F)c(CSC)c1SC [Example 2-170] | 100 | 100 | 100 | – | – | 100 | 100 | –
13 | CCn1nnnc1NC(=O)c1ccc(C(F)F)c(C[S+](C)[O-])c1SC (centres unmarked) [Example 2-171] | 100 | 100 | 100 | – | – | 100 | 100 | –
14 | CCn1nnnc1NC(=O)c1ccc(S(C)(=O)=O)c(CS(C)(=O)=O)c1Cl [Example 2-280] | – | – | – | – | – | – | – | herbicidal action ABUTH [1]: 100%; herbicidal action STEME [2]: 80%; herbicidal action VERPE [3]: 100%; Herbicidal action against STEME ([4]; post-emergence, dosage 80 g/ha): 100; Herbicidal action against VIOTR ([5]; post-emergence, dosage 80 g/ha): 90
15 | CCn1nnnc1NC(=O)c1ccc(C(F)(F)F)c(CSC)c1Cl [Example 2-296] | 100 | 100 | 100 | 100 | 100 | – | – | –
16 | CCn1nnnc1NC(=O)c1ccc(C(F)(F)F)c(C[S+](C)[O-])c1Cl (centres unmarked) [Example 2-297] | 100 | 100 | 100 | 100 | 100 | – | – | –

Row | SMILES | herbicidal activity ABUTH [1] [%] | herbicidal activity STEME [2] [%] | herbicidal activity VERPE [3] [%] | herbicidal action STEME ([4]; post-emergence, dosage 80 g/ha) [%] | herbicidal action VIOTR ([5]; post-emergence, dosage 80 g/ha) [%] | herbicidal action STEME ([4]; Dosage 80 g/ha) | herbicidal action VIOTR ([5]; Dosage 80 g/ha) | also measured
17 | CCn1nnnc1NC(=O)c1ccc(C(F)(F)F)c(CS(C)(=O)=O)c1Cl [Example 2-298] | 100 | 90 | 100 | – | – | 100 | 100 | –
18 | CCSCc1c(C(F)(F)F)ccc(C(=O)Nc2nnnn2CC)c1Cl [Example 2-299] | 100 | 100 | 100 | 100 | 100 | – | – | –
19 | CCn1nnnc1NC(=O)c1ccc(C(F)(F)F)c(C[S+]([O-])CC)c1Cl (centres unmarked) [Example 2-300] | 100 | 100 | 100 | 100 | 100 | – | – | –
20 | CCn1nnnc1NC(=O)c1ccc(C(F)(F)F)c(CS(=O)(=O)CC)c1Cl [Example 2-301] | – | – | – | – | – | 100 | 100 | herbicidal action ABUTH [1]: 100%; herbicidal action STEME [2]: 80%; herbicidal action VERPE [3]: 100%
21 | CCn1nnnc1NC(=O)c1ccc(C(F)(F)F)c(CSCCOC)c1Cl [Example 2-305] | 100 | 100 | 100 | 100 | 100 | – | – | –
22 | CCn1nnnc1NC(=O)c1ccc(C(F)(F)F)c(CSCC(F)(F)F)c1Cl [Example 2-311] | 100 | 100 | 90 | – | – | 100 | 100 | –
23 | CCn1nnnc1NC(=O)c1ccc(C(F)(F)F)c(C[S+]([O-])CC2CC2)c1Cl (centres unmarked) [Example 2-315] | 100 | 100 | 100 | – | – | 100 | 100 | –
24 | CCn1nnnc1NC(=O)c1ccc(C(F)F)c(CSC)c1Cl [Example 2-320] | 100 | 100 | 100 | – | – | 100 | 100 | –
25 | CCn1nnnc1NC(=O)c1ccc(C(F)F)c(CS(C)(=O)=O)c1Cl [Example 2-322] | 100 | 100 | 100 | 100 | 100 | – | – | –
26 | CCSCc1c(C(F)F)ccc(C(=O)Nc2nnnn2CC)c1Cl [Example 2-323] | 100 | 100 | 100 | 100 | 100 | – | – | –
27 | CCn1nnnc1NC(=O)c1ccc(C(F)F)c(C[S+]([O-])CC)c1Cl (centres unmarked) [Example 2-324] | 100 | 100 | 100 | 100 | 100 | – | – | –
28 | CCn1nnnc1NC(=O)c1ccc(C(F)F)c(CS(=O)(=O)CC)c1Cl [Example 2-325] | 100 | 100 | 100 | – | – | 100 | 100 | –
29 | CCn1nnnc1NC(=O)c1ccc(I)c(C[S+](C)[O-])c1Cl (centres unmarked) [Example 2-363] | 100 | 100 | 100 | – | – | 100 | 100 | –
30 | CCn1nnnc1NC(=O)c1ccc(C(F)(F)F)c(C[S+]([O-])CC)c1Br (centres unmarked) [Example 2-384] | 100 | 100 | 100 | 100 | 100 | – | – | –
31 | CCn1nnnc1NC(=O)c1ccc(C(F)(F)F)c(CS(=O)(=O)CC)c1Br [Example 2-385] | 100 | 100 | 100 | 100 | 100 | – | – | –
32 | CCn1nnnc1NC(=O)c1ccc(Cl)c(CSC)c1Cl [Example 2-559] | – | – | – | – | – | 100 | 100 | herbicidal action ABUTH [1]: 100%; herbicidal action STEME [2]: 90%; herbicidal action VERPE [3]: 100%

— US12492173B2, “Herbicidal substituted N-tetrazolyl aryl carboxamides” (Bayer Aktiengesellschaft, priority 2019, dated 2025)
